Results: publication PMC5742583, “A Functional Analysis on the Interspecies Interaction between Mouse LFA-1 and Human Intercellular Adhesion Molecule-1 at the Cell Level” (Frontiers in Immunology, 2017)
Where no end group is shown, it is not given here.

Experiments:
[1] = molecular target: T1, D1D2Fc (Homo sapiens, UniProt P05362); test: Isothermal titration calorimetry (ITC); settings: VP-ITC, D1D2Fc 12 µM titrated with peptide 150 µM, PBS, 25°C, 1:n interaction model, single type of binding sites, nonlinear regression, read-out: dissociation constant (KD)
T1 construct: The synthetic first two domains of ICAM-1 alone (D1D2) or linked with human IgG1 Fc region (D1D2Fc) were expressed in Escherichia coli; made in house; host or cells: Escherichia coli
Procedure: The ability of the human chimera D1D2Fc to interact with a peptide derived from its natural ligand LFA-1 in mouse was analyzed by ITC on a VP-ITC calorimeter (MicroCal) at 25°C as indicated previously ([34]). Briefly, 2.2 ml of a 12-µM solution of D1D2Fc and 0.5 ml of a 150-µM solution of peptide were prepared in PBS and degassed. Each assay consisted of a series of 28 injections of peptide solution of 10 µl each (with a 4-µl first injection) at 400 s intervals under constant stirring (459 rpm). The thermal power required to keep the cell at a constant temperature is measured, so that it provides the heat associated with each ligand injection after integrating the signal over time. The thermodynamic parameters of protein–peptide interactions (affinity, enthalpy, and entropy changes) as well as the stoichiometry were estimated by using nonlinear regression analysis. Data were analyzed using the software developed and implemented in Origin 7.0 (OriginLab).
Figure 1 Interaction of LFA-1 peptide with D1D2Fc by isothermal titration calorimetry. Purified D1D2Fc (12 µM) was titrated with a peptide derived from the binding site of mouse LFA-1 (CD11a235–259; 150 µM). The assay was performed in PBS buffer at 25°C. The nonlinear regression analysis done as described in Section “Experimental Procedures” provided a dissociation constant of 70 nM.

[2] = test system: mouse B cells (ICAM-1/LFA-1 interaction); test: Homotypic B cell aggregation assay; assay type: cell-based; settings: overnight 37°C, clumping index 1-10, two experiments by duplicate
Procedure: To obtain these cells, mice were sacrificed by cervical dislocation, the spleens were removed, and splenocytes were isolated and resuspended in RPMI 10% FBS at a final concentration of 10^6 cells/ml. Cells were treated with 10 µg/ml PHA and 1 µg/ml ionomycin to activate LFA-1 and incubated at 37°C 5% CO2 overnight in flat bottom 96-well plates (10^5 cells) in the presence of peptides from LFA-1 and c-Myc (control) 250 µM, D1D2, D1D2Fc, and human IgG1 10 µg, EGTA 1 mM and lovastatin 100 µM. A qualitative aggregation assay was carried out as described ([36], [41]) with a slight modification. Briefly, positive control stimulated cell samples were arbitrarily assigned a clumping index of 10 and lovastatin samples an index of 1. Test samples were ranked from 1 to 10 based upon degree of clumping relative to stimulated and lovastatin-treated samples. Results were verified by a blind independent rating performed by a second observer.
Fresh mouse B cells were obtained from splenocytes and stimulated with PHA and ionomycin to induce homotypic adhesion. The results were quantified by establishing a clumping index that represents the degree of cell aggregation, which reflects the inhibition efficiency (Figure 3B). Cell aggregation was ranked by a clumping index from 1 to 10 based on the degree of aggregation in comparison with the stimulated cells (positive control, clumping index = 10).
Figure 3 Effect of human (ICAM-1) on the aggregation of mouse spleen cells. (A) Splenocytes isolated from mice were non treated (a) or activated with PHA (b–i) as described in Section “Experimental Procedures” and further incubated overnight with (b) medium; (c) IgG1; (d) c-Myc peptide; (e) EGTA; (f) lovastatin; (g) D1D2; (h) D1D2Fc; (i) mouse LFA-1 peptide CD11a235–259. Images were taken with an optical microscope (original magnification, 10×). Representative images from two independent experiments with similar results are shown. (B) The graph represents the rate of agglutination depending on the inhibitory effect on ICAM-1/LFA-1 interaction. Cells stimulated with PHA and ionomycin, which served as a positive control, were arbitrarily assigned agglutination index 10, which represents a percentage of aggregation between 90 and 100%. Homotypic aggregation was classified from 1 to 10 depending on the degree of aggregation relative to cells stimulated. The result was verified by a second independent observer. Values are presented as mean ± SEM of two separate experiments performed by duplicate. Statistical analysis was performed using two-way analysis of variance with Bonferroni’s posttest comparing with c-Myc peptide control. *p < 0.05; ***p < 0.001.

[3] = test system: K562 cells killed by human NK cells (ICAM-1/LFA-1); test: NK cell-mediated cytotoxicity on K562; assay type: cell-based; settings: peptide 250 µM, preincubation 45 min 37°C; effector:target 3:1, 4 h; annexin-V/7-AAD by FACS; vs c-Myc control; two experiments by duplicate
Procedure: The effect of human and mouse peptides derived from LFA-1 on ICAM-1/LFA-1 dependent cell–cell contact was analyzed by performing a cell cytotoxicity assay using human primary NK cells and the NK cell sensitive human leukemia K562. Primary activated human NK cells were generated by culturing PBMCs with mitomycin C inactivated R69 cells for 5 days and enriched by MACS using anti-CD56 antibodies as previously described ([39]). Cell cytotoxicity induced by NK cells on K562 was analyzed by flow cytometry as previously described ([39]). Briefly, K562 cells were preincubated with medium alone, in the presence of 250 µM of human and mouse peptides from LFA-1 or D1D2 (15 µg) for 45 min at 37°C. Then, NK cells were added at 3:1 effector:target cell ratio and incubated for 4 h at 37°C, 5% CO2. Subsequently, phosphatidylserine exposure and 7-AAD uptake were analyzed by FACS using the annexin-V/7-AAD kit from Immunostep. As a control, the cells were incubated alone with the inhibitors to evaluate their possible toxicity, which was not significant in any case.
Figure 4 Inhibition of natural killer (NK) cell-mediated cytotoxicity by human intercellular adhesion molecule-1. […] Cell death was analyzed by measuring translocation of PS by flow cytometry in the negative population for CFSE as described in experimental procedures. […]

[4] = test system: gp33-pulsed EL4 cells killed by mouse Tc cells (ICAM-1/LFA-1); test: CD8+ T cell-mediated cytotoxicity on EL4; assay type: cell-based; settings: preincubation 45 min 37°C, effector:target 10:1, 4 h, three experiments by duplicate
[5] = test system: ICAM-1/LFA-1 interaction; settings: ref [36]; cited from earlier work
Procedure: Human and mouse LFA-1-derived peptides (human: CD11a237–261; mouse: CD11a235–259) were purchased from GenScript (Piscataway, USA) without any modification. […] Besides, incubation cells with a mouse antiCD1 ...

[6] = test system: human monocytes; test: Human monocyte adhesion to plastic (MTT); assay type: cell-based; settings: human D1D2 and D1D2Fc, different concentrations, 37°C overnight, three experiments by duplicate
Procedure: (§1) Monocytes were isolated from human peripheral blood mononuclear cells (PBMCs), obtained from healthy donors (Blood and Tissue Bank of Aragon; approved by the CEICA, number: C.I.PI11/006) by density gradient centrifugation using Ficoll-Paque (GE healthcare). PBMCs were resuspended at a concentration of 2.5 × 10^6 cells/ml in RPMI medium supplemented with 1% heat-inactivated human AB serum (Sigma). Cells were cultured in a Petri dish for 2 h at 37°C 5% CO2. […]
(§2) Freshly isolated monocytes or differentiated macrophages were washed twice with PBS and incubated with trypsin (PAN Biotech) for 30 min at 37°C 5% CO2. […] Next day, every well was washed twice with PBS, complete RPMI medium was added and the number or adherent remaining cells was quantified by a MTT colorimetric test ([38]). […]
(§3) Figure 6 LFA-1 is involved in human macrophage adhesion. […] (B) Macrophage phenotype was analyzed by flow cytometry testing the expression of HL-DR, CD14, CD54, and CD11a. […] Subsequently, every well was washed twice with PBS to remove non-adherent cells and quantification of cell adhesion was carried out by MTT as described in Section “Experimental Procedures.” Values are presented as mean ± SEM of three independent experiments performed by duplicate. […]

[7] = test system: human macrophages; test: Human macrophage adhesion to plastic (MTT); assay type: cell-based; settings: human D1D2 and D1D2Fc, different concentrations, 37°C overnight, three experiments by duplicate
Procedure: as §1, §2, §3

[8] = molecular target: human ICAM-1 first two domains linked with human IgG1 Fc region (D1D2Fc) (human); test: ITC; 150 µM peptide injected (28 injections of 10 µl) into 12 µM D1D2Fc in the cell, PBS, 25°C, VP-ITC; fitted with a 1:n interaction model with a single type of binding sites

T1 sequence (P05362 with tags, fused parts or gaps limits assumed): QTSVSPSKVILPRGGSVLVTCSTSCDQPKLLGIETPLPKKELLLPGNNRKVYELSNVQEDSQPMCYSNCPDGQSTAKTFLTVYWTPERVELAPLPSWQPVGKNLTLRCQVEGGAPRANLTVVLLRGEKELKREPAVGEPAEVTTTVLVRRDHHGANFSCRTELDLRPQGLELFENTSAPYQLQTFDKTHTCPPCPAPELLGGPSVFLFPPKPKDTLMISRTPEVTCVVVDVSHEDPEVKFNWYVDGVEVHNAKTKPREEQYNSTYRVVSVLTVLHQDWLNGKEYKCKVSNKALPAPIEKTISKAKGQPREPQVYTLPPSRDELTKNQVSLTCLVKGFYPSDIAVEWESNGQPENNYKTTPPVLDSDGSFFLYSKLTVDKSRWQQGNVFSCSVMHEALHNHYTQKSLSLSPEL

ITDGEASDKGNISAAHDITRYIIGI [CD11a235–259]
Kd [1]: 70 nM | inhibition of B cell aggregation ([2]; peptide 250 µM, splenocytes activated with PHA and ionomycin): completely blocked B cell aggregation | inhibition of NK cell-mediated cell death of K562 [3]: significantly inhibit cell death | inhibition of Tc cell-mediated cell death of EL4 ([4]; peptide 250 µM): able to inhibit cytotoxicity | ability to block ICAM-1/LFA-1 interaction [5]: ability to block ICAM-1/LFA-1 interaction

B1: Human ICAM-1: human ICAM-1 (D1D2Fc and D1D2) in this paper's tests; purified human ICAM-1 in ref [29] (protein, UniProt P05362 28-532, looked up)
Intercellular adhesion …: QTSVSPSKVILPRGGSVLVTCSTSCDQPKLLGIETPLPKKELLLPGNNRKVYELSNVQEDSQPMCYSNCPDGQSTAKTFLTVYWTPERVELAPLPSWQPVGKNLTLRCQVEGGAPRANLTVVLLRGEKELKREPAVGEPAEVTTTVLVRRDHHGANFSCRTELDLRPQGLELFENTSAPYQLQTFVLPATPPQLVSPRVLEVDTQGTVVCSLDGLFPVSEAQVHLALGDQRLNPTVTYGNDSFSAKASVSVTAEDEGTQRLTCAVILGNQSQETLQTVTIYSFPAPNVILTKPEVSEGTEVTVKCEAHPRAKVTLNGVPAQPLGPRAQLLLKATPEDNGRSFSCSATLEVAGQLIHKNQTRELRVLYGPRLDERDCPGNWTWPENSQQTPMCQAWGNPLPELKCLKDGTFPLPIGESVTVTRDLEGTYLCRARSTQGEVTRKVTVNVLSPRYEIVIITVVAAAVIMGTAGLSTYLYNRQRKIKKYRLQQAQKGTPMKPNTQATPP
inhibition of B cell aggregation ([2]; protein 10 µg, splenocytes activated with PHA 10 µg/ml and ionomycin 1 µg/ml): significantly inhibited adhesion | inhibition of Tc cell-mediated cell death of EL4 ([4]; ICAM-1 proteins, several (increasing) amounts, annexin-V/7-AAD by FACS): completely blocked cell death | inhibition of adhesion of human monocytes [6]: completely inhibited | inhibition of adhesion of human macrophages [7]: completely inhibited

B2: mouse LFA-1-derived peptide CD11a(235-259) (peptide)
peptide: ITDGEASDKGNISAAHDITRYIIGI
Kd [8]: 70 nM
